Laboratory results from patent publication US7276514B2, “Pyrroloquinoline quinone drugs for treatment of cardiac injury and methods of use thereof” (Charitable Leadership Foundation - Medical Technology …, priority 2002, dated 2007).
“Also recorded” adds a separate entry of the source.

Columns and labels:
isolated mouse heart [1] = experiment: Ex vivo isolated mouse heart (Langendorff), 20 min ischemia followed by 30 min reperfusion
Method: Ex vivo studies were performed using an isolated mouse heart preparation employing the Langendorff technique. In this approach, the heart is removed and mounted on a perfusion apparatus in which drugs can be given via an aortic cannula. The heart is paced at a constant rate, and left ventricular developed pressure [LVDP; left ventricular systolic pressure minus left ventricular end-diastolic pressure], left ventricular end-diastolic pressure [LVEDP], and the maximum positive and negative first derivatives of left ventricular pressure [+dP/dtmax and −dP/dtmax] are recorded. The heart is equilibrated for 20 min. After drug or vehicle is infused, the heart is subjected to 20 min of ischemia [coronary flow completely stopped] followed by 30 min of reperfusion. Coronary sinus flow as a reflection of coronary blood flow is also measured. This protocol leads to severe myocardial injury as measured by hemodynamic parameters.

[2] = test system: adult cardiac mouse myocytes; experiment: Cultured adult cardiac mouse myocytes exposed to severe hypoxia, viability by trypan blue exclusion; format: cell-based
Method: An in vitro model of cultured adult cardiac mouse myocytes was developed to study cardioprotection by PQQ. These cells are viable in culture for up to 48 hours at a physiologic pH and consist of >90% rod-shaped cells. These cells can be used readily for determination of cell viability by trypan blue exclusion, and for biochemical, immunochemical, and molecular studies. In this model, approximately 35% of the cells die when exposed to 0% oxygen in a hypoxia chamber for 2-3 hours. […] A higher concentration of PQQ (100 μM) is highly toxic under normoxic conditions as evidenced by 100% cell death.

isolated mouse heart [3] = experiment: Ex vivo isolated mouse heart (Langendorff), 20 min ischemia followed by 30 min reperfusion; conditions: 100 nM PQQ given at the time of onset of reperfusion
[4] = test system: adult mouse cardiac myocytes; experiment: Toxicity of PQQ to cultured adult mouse cardiac myocytes under normoxic conditions; format: cell-based; conditions: 100 μM PQQ
Method: The invention encompasses methods of treating or preventing cardiac injury caused by hypoxia or ischemia in a subject, wherein PQQ is administered to a subject in need thereof, such that hypoxia or ischemic-related injury is prevented or decreased. In certain embodiments, the PQQ is administered at a concentration of less than about 10 μM. In other embodiments, the PQQ is administered at a concentration in the range of about 10 nM to about 10 μM, about 10 nM to about 1 μM, 100 nM to about 10 μM, and 100 nM to about 500 nM. In still other embodiments of the invention, the PQQ is administered at a concentration such that the concentration of PQQ at the site of cardiac tissue is in the range of 10 nM to about 10 μM. PQQ may also be administered as a function of the subject's body weight. In some embodiments of the invention, PQQ is administered at a concentration of between about 1 μg/kg to 1 g/kg of a subject's body weight, including less than 500 mg/kg, 250 mg/kg, 100 mg/kg, 10 mg/kg, 5 mg/kg, 2 mg/kg, 1 mg/kg, 500 μg/kg, 250 μg/kg, 100 μg/kg, 10 μg/kg, 5 μg/kg, 2 μg/kg or 1 μg/kg. […]
An in vitro model of cultured adult cardiac mouse myocytes was developed to study cardioprotection by PQQ. […] These cells can be used readily for determination of cell viability by trypan blue exclusion, and for biochemical, immunochemical, and molecular studies. […]

cardiac myocytes = experiment: Cultured cardiac myocytes subjected to oxidative stress by H2O2; format: cell-based
Method: Cultured cardiac myocytes are subjected to oxidative stress by in vitro administration of H2O2. Two studies are done, one in which PQQ is added in concentrations between 10 nM and less than 10 μM to cardiac myocytes, after which H2O2 is added. In the other study, cardiac myocytes are subjected to insult in vitro admininstration of H2O2 for two hours, after which PQQ is added in concentrations between 10 nM and less than 10 μM. In both studies, PQQ is found to be protective.

[5] = 100 nM PQQ infused for 2 minutes prior to ischemia

O=C(O)c1cc(C(=O)O)c2c(n1)C(=O)C(=O)c1cc(C(=O)O)[nH]c1-2 [PQQ, Pyrroloquinoline quinone]
+dP/dtmax (isolated mouse heart [1]; [5]): track the LVDP results
left ventricular developed pressure (LVDP) (isolated mouse heart [1]; [5]): significant preservation; also recorded: preserves
left ventricular end-diastolic pressure (LVEDP) (isolated mouse heart [1]; [5]): preserves
−dP/dtmax (isolated mouse heart [1]; [5]): track the LVDP results
toxicity (FIG. 8) (isolated mouse heart [1]; 2 min pretreatment, 10 μM PQQ): toxicity occurs
hemodynamic response (FIG. 8) (isolated mouse heart [1]; 2 min pretreatment, PQQ between 10 nM and 1 μM): progressively favorable responses
infarct size (isolated mouse heart [1]; PQQ pretreatment at 10 μM): not reduced
infarct size (isolated mouse heart [1]; PQQ pretreatment between 10 nM and 1 μM): progressive reduction
coronary flow (isolated mouse heart [1]; PQQ pretreatment compared to control): significantly improved
proportion of viable cells (trypan blue exclusion) after hypoxia ([2]; 1 μM PQQ added 1 hour before severe hypoxia (0% oxygen for 2-3 hours)): significant increase
PQQ protection against hypoxia-induced cell death in presence of mitochondrial KATP channel inhibitor ([2]; 1 μM PQQ with 100 μM 5-hydroxydecanoic acid): not inhibited
PQQ protection in presence of mitochondrial KATP channel inhibitor (FIG. 2 legend) ([2]; 10 μM 5-hydroxydecanoic acid): not inhibited
hemodynamic response when given at onset of reperfusion (PQQ tre.) (isolated mouse heart [3]): equivalent to pretreatment
toxicity to cultured adult mouse cardiac myocytes [4]: highly toxic; also recorded: observed
cell death ([4]; normoxic conditions): 100%
protection of cardiac myocytes against H2O2 oxidative stress (cardiac myocytes; PQQ between 10 nM and less than 10 μM added after two hours of H2O2): protective
protection of cardiac myocytes against H2O2 oxidative stress (cardiac myocytes; PQQ between 10 nM and less than 10 μM added before H2O2): protective
